Experimental data: the supplement of paper PMC10307832

Columns and labels:
Experiment in all cases: relative viability (nuclei count vs DMSO), 5 days (fraction); higher = more cells survive
Ispinesib + Crizotinib = compound: Cc1ccc(C(=O)N(CCCN)[C@@H](c2nc3cc(Cl)ccc3c(=O)n2Cc2ccccc2)C(C)C)cc1 [Ispinesib] + C[C@@H](Oc1cc(-c2cnn(C3CCNCC3)c2)cnc1N)c1c(Cl)ccc(F)c1Cl [Crizotinib] (partner 1 µM)
In short: (§1)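 Dosing by pin tool came one day after lung cancer cell lines were seeded in 1536-well plates, using either one drug or a fixed anchor-drug dose plus five library-drug doses (not always all listed) in √10 steps. After 5 days, nuclei were counted on 4× images. Relative viability is treated-well nuclei count divided by vehicle-well nuclei count, and values are medians of duplicate plates.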

Ispinesib + Pictilisib = compound: Cc1ccc(C(=O)N(CCCN)[C@@H](c2nc3cc(Cl)ccc3c(=O)n2Cc2ccccc2)C(C)C)cc1 [Ispinesib] + CS(=O)(=O)N1CCN(Cc2cc3nc(-c4cccc5[nH]ncc45)nc(N4CCOCC4)c3s2)CC1 [Pictilisib] (partner 1 µM)
In short: as §1

Linsitinib + OSI-027 = compound: C[C@]1(O)C[C@@H](c2nc(-c3ccc4ccc(-c5ccccc5)nc4c3)c3c(N)nccn32)C1 [Linsitinib] + COc1cccc2cc(-c3nc([C@H]4CC[C@H](C(=O)O)CC4)n4ncnc(N)c34)[nH]c12 [OSI-027] (partner 0.5 µM)
In short: as §1

Ispinesib + Vorinostat = compound: Cc1ccc(C(=O)N(CCCN)[C@@H](c2nc3cc(Cl)ccc3c(=O)n2Cc2ccccc2)C(C)C)cc1 [Ispinesib] + O=C(CCCCCCC(=O)Nc1ccccc1)NO [Vorinostat] (partner 1 µM)
In short: as §1

Cell Line	relative viability (Ispinesib + Crizotinib; first compound 0.001 µM)	relative viability (Ispinesib + Crizotinib; first compound 0.003162 µM)	relative viability (Ispinesib + Crizotinib; first compound 0.01 µM)	relative viability (Ispinesib + Crizotinib; first compound 0.03162 µM)	relative viability (Ispinesib + Crizotinib; first compound 0.1 µM)	relative viability (Ispinesib + Pictilisib; first compound 0.001 µM)	relative viability (Ispinesib + Pictilisib; first compound 0.003162 µM)	relative viability (Ispinesib + Pictilisib; first compound 0.01 µM)	relative viability (Ispinesib + Pictilisib; first compound 0.03162 µM)	relative viability (Ispinesib + Pictilisib; first compound 0.1 µM)	relative viability (Linsitinib + OSI-027; first compound 0.01 µM)	relative viability (Linsitinib + OSI-027; first compound 0.03162 µM)	relative viability (Linsitinib + OSI-027; first compound 0.1 µM)	relative viability (Linsitinib + OSI-027; first compound 0.3162 µM)	relative viability (Linsitinib + OSI-027; first compound 1 µM)	relative viability (Ispinesib + Vorinostat; first compound 0.001 µM)	relative viability (Ispinesib + Vorinostat; first compound 0.003162 µM)	relative viability (Ispinesib + Vorinostat; first compound 0.01 µM)	relative viability (Ispinesib + Vorinostat; first compound 0.03162 µM)	relative viability (Ispinesib + Vorinostat; first compound 0.1 µM)
201T	1.05	1.09	1.14	1.04	1.01	0.724	0.733	0.677	0.643	0.652	0.808	0.799	1.01	0.829	0.342	1	1.01	1.02	0.908	0.28
A549	0.88	0.903	0.849	0.0553	0.181	0.674	0.525	0.831	0.173	0.158	–	–	–	–	–	–	–	–	–	–
A-427	0.886	1.23	0.968	0.887	0.369	0.805	0.829	0.891	0.388	0.177	0.448	0.432	0.5	–	0.357	0.878	0.953	0.981	0.385	0.217
ABC-1	1.1	1.15	0.908	0.248	0.334	0.656	0.678	0.692	0.301	0.339	0.502	0.447	0.504	0.38	0.217	1.14	1.3	1.05	–	0.548
BEN	1.08	1.01	1.04	0.507	0.431	0.581	0.675	0.542	0.421	0.222	0.346	0.27	0.258	–	0.249	0.538	0.676	0.642	0.478	0.374
CAL-12T	0.688	0.731	0.394	0.229	0.282	0.413	0.545	0.523	0.295	0.172	0.625	0.688	0.679	0.351	0.297	0.839	0.914	0.583	0.585	0.24
COR-L23	0.68	0.729	0.882	0.311	0.248	0.895	0.863	0.908	0.181	0.235	0.626	0.968	0.804	0.52	0.509	0.422	0.448	0.342	0.14	0.175
COR-L 105	0.721	0.759	0.47	0.263	0.411	0.448	0.393	0.257	0.243	0.258	0.64	0.578	0.603	0.596	0.381	0.933	0.51	1.04	0.49	0.522
Calu-6	0.992	0.618	0.527	0.169	0.265	1.09	0.727	0.186	0.113	0.155	–	–	–	–	–	–	–	–	–	–
ChaGo-K-1	1.26	1.3	1.26	0.841	0.894	0.895	1.3	0.659	0.397	0.312	0.613	0.627	0.573	0.319	0.522	0.838	0.744	0.827	0.765	0.232
EBC-1	0.189	0.194	0.194	0.167	0.152	0.448	0.38	0.328	0.179	0.191	–	–	–	–	–	–	–	–	–	–
EKVX	1.19	1.34	1.06	0.689	0.196	0.442	0.423	0.508	0.543	0.438	0.706	0.723	0.687	0.467	0.607	0.741	0.78	0.693	0.623	0.561
EMC-BAC-2	0.914	0.847	0.756	0.751	0.481	0.553	0.568	0.539	0.413	0.239	0.365	0.377	0.336	0.341	0.247	0.539	0.745	0.419	0.147	0.365
EPLC-272H	1.06	0.842	1.23	0.883	0.805	0.295	0.337	0.338	0.258	0.142	0.262	0.296	–	–	0.257	0.351	0.635	0.322	0.128	0.341
H3255	1.09	0.821	0.92	0.58	0.327	0.456	0.431	0.471	0.335	0.345	0.654	0.682	0.725	0.467	0.576	0.79	1.09	0.804	0.479	0.413
HARA	1.33	1.18	1.24	1.06	0.188	0.445	0.43	0.392	0.467	0.179	0.505	0.502	0.637	–	0.232	0.519	0.567	0.528	0.477	0.389
HCC-15	0.892	0.976	0.97	0.489	0.15	0.878	0.864	0.812	0.459	0.139	0.677	0.677	0.616	–	0.246	0.861	0.976	0.968	0.852	0.344
HCC-44	0.796	0.905	0.951	0.776	0.121	0.768	0.858	0.68	0.646	0.106	0.503	0.41	0.465	0.181	0.232	1.04	1.05	1.15	1.23	1.08
HCC-78	0.348	0.341	0.438	–	0.272	0.223	0.198	0.235	–	0.247	0.377	0.379	0.31	0.377	0.347	0.422	0.49	0.459	0.404	0.414
HCC-366	0.6	0.563	1.22	0.848	0.0887	0.082	0.161	0.143	0.0978	0.0851	1.03	0.999	0.888	0.821	0.235	0.353	0.512	0.351	0.216	0.0545

Cell Line	relative viability (Ispinesib + Crizotinib; first compound 0.001 µM)	relative viability (Ispinesib + Crizotinib; first compound 0.003162 µM)	relative viability (Ispinesib + Crizotinib; first compound 0.01 µM)	relative viability (Ispinesib + Crizotinib; first compound 0.03162 µM)	relative viability (Ispinesib + Crizotinib; first compound 0.1 µM)	relative viability (Ispinesib + Pictilisib; first compound 0.001 µM)	relative viability (Ispinesib + Pictilisib; first compound 0.003162 µM)	relative viability (Ispinesib + Pictilisib; first compound 0.01 µM)	relative viability (Ispinesib + Pictilisib; first compound 0.03162 µM)	relative viability (Ispinesib + Pictilisib; first compound 0.1 µM)	relative viability (Linsitinib + OSI-027; first compound 0.01 µM)	relative viability (Linsitinib + OSI-027; first compound 0.03162 µM)	relative viability (Linsitinib + OSI-027; first compound 0.1 µM)	relative viability (Linsitinib + OSI-027; first compound 0.3162 µM)	relative viability (Linsitinib + OSI-027; first compound 1 µM)	relative viability (Ispinesib + Vorinostat; first compound 0.001 µM)	relative viability (Ispinesib + Vorinostat; first compound 0.003162 µM)	relative viability (Ispinesib + Vorinostat; first compound 0.01 µM)	relative viability (Ispinesib + Vorinostat; first compound 0.03162 µM)	relative viability (Ispinesib + Vorinostat; first compound 0.1 µM)
HCC-827	0.965	0.91	0.957	0.918	0.69	0.979	0.964	1.05	0.8	0.734	0.769	0.836	0.821	–	0.771	0.827	0.999	0.861	0.649	0.696
HOP-62	0.966	1.04	0.792	0.976	0.918	0.568	0.784	0.785	0.306	0.148	0.877	0.866	0.96	–	0.544	0.685	0.631	0.949	0.667	0.25
IA-LM	0.897	0.912	0.7	0.131	0.199	0.484	0.352	0.278	0.173	0.121	–	–	–	–	–	0.889	0.863	1.01	1.23	0.369
LC-2-ad	0.447	0.317	0.439	0.368	0.283	0.507	0.509	0.438	0.0946	0.133	0.803	0.827	0.684	0.414	0.422	0.718	0.697	0.765	0.321	0.19
LCLC-97TM1	0.291	0.381	0.508	0.236	0.175	0.251	0.187	0.192	0.111	0.126	0.52	0.515	0.335	0.248	0.234	0.645	0.847	1.04	0.289	0.0855
LCLC-103H	1.08	1.2	1.08	0.999	0.929	0.6	0.624	0.682	0.495	0.572	0.44	0.475	0.42	0.356	0.367	0.827	0.86	0.845	0.515	0.352
LK-2	0.169	0.269	0.213	0.21	0.333	0.645	0.632	0.744	0.438	0.443	0.243	0.242	0.154	0.167	0.168	0.247	0.348	0.343	0.195	0.24
LOU-NH91	0.764	0.744	0.706	0.671	0.536	0.482	0.54	0.508	0.427	0.256	0.714	0.704	0.7	0.712	0.527	0.91	1.04	0.939	0.247	0.236
NCI-H522	–	–	–	–	–	–	–	–	–	–	0.729	0.798	0.695	–	0.574	0.824	0.897	0.803	0.592	0.351
NCI-H1299	1.01	0.977	1.02	0.805	0.469	0.951	0.727	0.789	0.37	0.152	–	–	–	–	–	–	–	–	–	–
NCI-H1395	–	–	–	–	–	0.604	0.663	0.63	0.368	0.383	0.571	0.637	0.612	0.622	0.545	0.754	0.871	0.385	0.386	0.421
NCI-H1563	0.826	0.776	0.782	0.949	0.781	0.68	0.723	0.533	0.54	0.528	0.695	0.786	0.714	0.87	0.63	–	–	–	–	–
NCI-H1623	–	–	–	–	–	–	–	–	–	–	0.408	0.432	0.398	–	0.285	–	–	–	–	–
NCI-H1648	–	–	–	–	–	–	–	–	–	–	0.26	0.265	0.264	–	0.245	0.594	0.682	0.422	0.634	0.428
NCI-H1703	0.811	0.454	0.185	0.0885	0.285	0.248	0.218	0.181	0.123	0.136	–	–	–	–	–	–	–	–	–	–
NCI-H1792	1.26	1.16	0.863	0.736	0.32	0.289	0.303	0.254	0.177	0.302	–	0.728	0.619	0.481	0.292	–	–	–	–	–
NCI-H1793	–	–	–	–	–	0.331	0.404	0.39	0.217	0.124	0.25	0.314	0.246	0.205	0.175	0.702	0.881	0.925	0.38	0.318
NCI-H2342	–	–	–	–	–	–	–	–	–	–	0.521	0.608	0.608	0.53	0.551	0.664	0.724	0.797	0.75	0.554
SW 900	–	–	–	–	–	–	–	–	–	–	0.565	0.593	0.481	0.397	0.352	0.523	0.606	0.478	0.449	0.294
